US20250215030A1, “STAT MODULATORS AND USES THEREOF” (Recludix Pharma, Inc., priority 2022, published 2025)

Columns and labels:
pSTAT3 (pY705-STAT3) = molecular target: T1, pSTAT3 (pY705-STAT3) (Homo sapiens, UniProt P40763); assay: MSD-pSTAT-PBMC Assay (pSTAT3, IL-6 stimulated); type: cell-based; settings: PBMC, compound 3 hrs, then 10 ng/mL IL-6 for 10 min; MSD pY705-STAT3; read-out: pSTAT3
T1 construct: host or cells: cryopreserved PBMC
Procedure, shortened: (§1)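 Human PBMCs (50,000 cells/well for STAT3, 25,000 for STAT6) treated with compound 3 h, then stimulated 10 min with 10 ng/mL IL-6 or 1 ng/mL IL-4. Lysate pSTAT3 (pY705) or pSTAT6 (pY641) measured by MSD sandwich electrochemiluminescence. Signal minus unstimulated, normalized to DMSO; IC50 by variable-slope nonlinear regression.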

pSTAT6 (pY641-STAT6) = molecular target: T2, pSTAT6 (pY641-STAT6) (Homo sapiens, UniProt P42226); assay: MSD-pSTAT-PBMC Assay (pSTAT6, IL-4 stimulated); type: cell-based; settings: compound 3 hrs, then 1 ng/mL IL-4 for 10 min
T2 construct: host or cells: cryopreserved PBMC
T2 sequence (P42226 1-847): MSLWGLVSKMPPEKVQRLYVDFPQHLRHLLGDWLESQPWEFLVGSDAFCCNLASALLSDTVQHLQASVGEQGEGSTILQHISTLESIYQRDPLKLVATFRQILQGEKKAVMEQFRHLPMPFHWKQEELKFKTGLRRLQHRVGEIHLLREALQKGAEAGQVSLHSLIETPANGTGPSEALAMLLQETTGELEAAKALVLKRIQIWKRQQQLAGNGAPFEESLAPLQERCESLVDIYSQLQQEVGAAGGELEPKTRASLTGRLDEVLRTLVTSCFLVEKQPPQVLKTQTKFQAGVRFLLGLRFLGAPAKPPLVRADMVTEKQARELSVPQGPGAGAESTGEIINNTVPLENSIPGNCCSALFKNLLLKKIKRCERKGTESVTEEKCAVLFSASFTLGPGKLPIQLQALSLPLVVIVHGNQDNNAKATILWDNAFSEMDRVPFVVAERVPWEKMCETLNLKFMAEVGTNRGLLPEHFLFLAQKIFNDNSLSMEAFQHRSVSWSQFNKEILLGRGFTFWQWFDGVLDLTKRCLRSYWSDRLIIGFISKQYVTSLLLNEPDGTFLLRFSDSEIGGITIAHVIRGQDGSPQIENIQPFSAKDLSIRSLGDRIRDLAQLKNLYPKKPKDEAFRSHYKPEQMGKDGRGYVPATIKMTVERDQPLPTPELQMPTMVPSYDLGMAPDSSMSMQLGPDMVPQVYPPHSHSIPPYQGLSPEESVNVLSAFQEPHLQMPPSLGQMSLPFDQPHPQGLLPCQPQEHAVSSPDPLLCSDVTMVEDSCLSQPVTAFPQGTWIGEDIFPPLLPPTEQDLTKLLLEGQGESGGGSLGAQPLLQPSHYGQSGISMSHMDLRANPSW
Procedure, shortened: as §1

T1 sequence (P40763 whole entry): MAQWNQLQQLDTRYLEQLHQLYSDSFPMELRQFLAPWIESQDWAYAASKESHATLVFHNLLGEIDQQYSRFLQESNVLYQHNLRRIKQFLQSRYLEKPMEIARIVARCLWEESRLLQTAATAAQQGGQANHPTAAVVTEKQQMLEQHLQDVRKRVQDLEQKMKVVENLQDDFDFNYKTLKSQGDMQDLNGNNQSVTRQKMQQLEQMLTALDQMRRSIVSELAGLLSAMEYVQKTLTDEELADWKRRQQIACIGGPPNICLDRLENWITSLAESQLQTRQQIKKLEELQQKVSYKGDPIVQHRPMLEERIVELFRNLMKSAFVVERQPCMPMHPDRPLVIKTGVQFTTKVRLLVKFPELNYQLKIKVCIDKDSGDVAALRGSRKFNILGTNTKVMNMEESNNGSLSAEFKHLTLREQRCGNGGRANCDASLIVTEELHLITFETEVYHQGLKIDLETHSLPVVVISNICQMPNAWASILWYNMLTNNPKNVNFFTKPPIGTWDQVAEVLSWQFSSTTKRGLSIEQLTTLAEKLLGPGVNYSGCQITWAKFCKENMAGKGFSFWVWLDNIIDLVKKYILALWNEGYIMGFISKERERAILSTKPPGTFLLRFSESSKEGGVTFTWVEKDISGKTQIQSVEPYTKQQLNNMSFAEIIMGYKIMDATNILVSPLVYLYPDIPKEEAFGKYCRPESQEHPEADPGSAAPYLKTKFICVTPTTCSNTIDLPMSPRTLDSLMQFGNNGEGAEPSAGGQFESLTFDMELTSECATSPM

| Compound | IC50 (pSTAT3 (pY705-STAT3)) [nM] | IC50 (pSTAT6 (pY641-STAT6)) [nM] |
| --- | --- | --- |
| CC(C)(C)C(=O)OCOP(=O)(OCOC(=O)C(C)(C)C)C(F)(F)c1ccc2sc(C(=O)N[C@H]3C[C@H]4C[C@H]4C[C@H]4CC[C@@H](C(=O)N[C@@H]5CCN(c6cccnc6)C5)N4C3=O)cc2c1 [Compound 213, (((difluoro(2-(((3S,6S,7aR, 8aS,9aR)-5-oxo-3-(((R)-1-(pyridin-3-yl)pyrrolidin-3-yl)carbamoyl)decahydro-1H-cyclopropa[d]pyrrolo[1,2-a]azocin-6-yl)carbamoyl)benzo[b]thiophen-5-yl)methyl)phosphoryl)bis(oxy)) bis(methylene) bis(2,2-dimethyl-propanoate)] | 100 to 1000 | > 3000 |
| CCCC(=O)SCCOP(=O)(OCCSC(=O)C(C)(C)C)C(F)(F)c1ccc2sc(C(=O)N[C@H]3C[C@@H]4C[C@@H]4C[C@H]4CC[C@@H](C(=O)N5CC(C(=O)N6CCOCC6)C5)N4C3=O)cc2c1 (stereo partly drawn) [Compound 138, S-(2-(((difluoro(2-(((3S,6S,7aS, 8aR,9aR)-3-(3-(morpholine-4-carbonyl)azetidine-1-carbonyl)-5-oxodecahydro-1H-cyclopropa [d]pyrrolo[1,2-a]azocin-6-yl)carbamoyl)benzo [b]thiophen-5-yl)methyl)(2-(pivaloylthio)ethoxy)phosphoryl)oxy)ethyl) butanethioate] | < 100 | 1000 to 3000 |
| CC(C)(C)C(=O)OCOP(=O)(OCOC(=O)C(C)(C)C)C(F)(F)c1ccc2sc(C(=O)N[C@H]3C[C@@H]4C[C@@H]4C[C@H]4CC[C@@H](C(=O)N5CC(c6ccccn6)C5)N4C3=O)cc2c1 [Compound 206, (((difluoro(2-(((3S,6S,7aS, 8aR,9aR)-5-oxo-3-(3-(pyridin-2-yl)azetidine-1-carbonyl)decahydro-1H-cyclopropa[d]pyrrolo[1,2-a]azocin-6-yl)carbamoyl)benzo[b]thiophen-5-yl)methyl)phosphoryl)bis(oxy)) bis(methylene) bis(2,2-dimethyl-propanoate)] | < 100 | 100 to 1000 |
| CC(C)(C)C(=O)OCOP(=O)(OCOC(=O)C(C)(C)C)C(F)(F)c1ccc2sc(C(=O)N[C@H]3C[C@H]4C[C@H]4C[C@H]4CC[C@@H](C(=O)N5CC(n6ccnc6)C5)N4C3=O)cc2c1 [Compound 214, ((((2-(((3S,6S,7aR, 8aS,9aR)-3-(3-(1H-imidazol-1-yl)azetidine-1-carbonyl)-5-oxodecahydro-1H-cyclopropa[d]pyrrolo[1,2-a]azocin-6-yl)carbamoyl)benzo[b]thiophen-5-yl)difluoromethyl)phosphoryl)bis(oxy)) bis(methylene) bis(2,2-dimethyl-propanoate)] | < 100 | > 3000 |
| CC(C)(C)C(=O)SCCOP(=O)(OCCSC(=O)C(C)(C)C)C(F)(F)c1ccc2sc(C(=O)N[C@H]3C[C@H]4C[C@H]4C[C@H]4CC[C@@H](C(=O)N5CC(c6ccccn6)C5)N4C3=O)cc2c1 [Compound 218, S,S′-((((difluoro(2-(((3S,6S,7aR, 8aS,9aR)-5-oxo-3-(3-(pyridin-2-yl)azetidine-1-carbonyl)decahydro-1H-cyclopropa[d]pyrrolo[1,2-a]azocin-6-yl)carbamoyl)benzo [b]thiophen-5-yl)methyl)phosphoryl)bis(oxy))bis(ethane-2,1-diyl)) bis(2,2-dimethyl-propanethioate)] | < 100 | > 3000 |
| CC(C)OC(=O)[C@@H](C)CNP(=O)(Oc1ccccc1)C(F)(F)c1ccc2sc(C(=O)N[C@H]3C[C@@H]4C[C@@H]4C[C@H]4CC[C@@H](C(=O)N5CC(C(=O)N6CCOCC6)C5)N4C3=O)cc2c1 (stereo partly drawn) [Compound 184, isopropyl (2S)-3-(((difluoro(2-(((3S,6S,7aS, 8aR,9aR)-3-(3-(morpholine-4-carbonyl)azetidine-1-carbonyl)-5-oxodecahydro-1H-cyclopropa [d]pyrrolo[1,2-a]azocin-6-yl)carbamoyl)benzo[b]thiophen-5-yl)methyl) (phenoxy)phosphoryl)amino)-2-methyl-propanoate] | > 3000 | > 3000 |
| CC(C)OC(=O)OCOP(=O)(Cc1ccc2sc(C(=O)N[C@H]3C[C@@H]4C[C@@H]4C[C@H]4CC[C@@H](C(=O)N5CC(C(=O)N6CCOCC6)C5)N4C3=O)cc2c1)OCOC(=O)OC(C)C [Compound 148] | 100 to 1000 | > 3000 |
| CC(C)OC(=O)[C@H](C)NP(=O)(Cc1ccc2sc(C(=O)N[C@H]3C[C@@H]4C[C@@H]4C[C@H]4CC[C@@H](C(=O)N5CC(C(=O)N6CCOCC6)C5)N4C3=O)cc2c1)Oc1ccccc1 (stereo partly drawn) [Compound 154, isopropyl (((2-(((3S,6S,7aS, 8aR,9aR)-3-(3-(morpholine-4-carbonyl)azetidine-1-carbonyl)-5-oxodecahydro-1H-cyclopropa[d]pyrrolo[1,2-a]azocin-6-yl)carbamoyl)benzo[b]thiophen-5-yl)methyl) (phenoxy) (phosphoryl)-L-alaninate] | 100 to 1000 | > 3000 |
| CC(C)(C)C(=O)SCCOP(=O)(OCCSC(=O)C(C)(C)C)C(F)(F)c1ccc2sc(C(=O)N[C@H]3C[C@@H]4C[C@@H]4C[C@H]4CC[C@@H](C(=O)N5CC(F)(c6ccccc6)C5)N4C3=O)cc2c1 [Compound 228, S,S′-((((difluoro(2-(((3S,6S,7aS, 8aR,9aR)-3-(3-fluoro-3-phenylazetidine-1-carbonyl)-5-oxodecahydro-1H-cyclopropa[d]pyrrolo[1,2-a]azocin-6-yl)carbamoyl)benzo[b]thiophen-5-yl)methyl)phosphoryl)bis(oxy))bis(ethane-2,1-diyl)) bis(2,2-dimethyl-propanethioate)] | 100 to 1000 | > 3000 |
| CCCC(=O)SCCOP(=O)(OCCSC(=O)CCC)C(F)(F)c1ccc2sc(C(=O)N[C@H]3C[C@@H]4C[C@@H]4C[C@H]4CC[C@@H](C(=O)N5CC(n6ccnc6)C5)N4C3=O)cc2c1 [Compound 188, S,S′-(((((2-(((3S,6S,7aS, 8aR,9aR)-3-(3-(1H-imidazol-1-yl)azetidine-1-carbonyl)-5-oxodecahydro-1H-cyclopropa[d]pyrrolo[1,2-a]azocin-6-yl)carbamoyl)benzo[b]thiophen-5-yl)difluoromethyl)phosphoryl)bis(oxy))bis(ethane-2,1-diyl)) dibutanethioate] | < 100 | 100 to 1000 |
| CC(C)(C)C(=O)OCOP(=O)(OCOC(=O)C(C)(C)C)C(F)(F)c1ccc2sc(C(=O)N[C@H]3C[C@@H]4C[C@@H]4C[C@H]4CC[C@@H](C(=O)N5CC(C6CCOCC6)C5)N4C3=O)cc2c1 [Compound 205, (((difluoro(2-(((3S,6S,7aS, 8aR,9aR)-5-oxo-3-(3-(tetrahydro-2H-pyran-4-yl)azetidine-1-carbonyl)decahydro-1H-cyclopropa[d]pyrrolo[1,2-a]azocin-6-yl)carbamoyl)benzo[b]thiophen-5-yl)methyl)phosphoryl)bis(oxy)) bis(methylene) bis(2,2-dimethyl-propanoate)] | < 100 | 100 to 1000 |
| CC(C)CC(=O)SCCOP(=O)(OCCSC(=O)CC(C)C)C(F)(F)c1ccc2sc(C(=O)N[C@H]3C[C@H]4C[C@H]4C[C@H]4CC[C@@H](C(=O)N5CC(c6cncnc6)C5)N4C3=O)cc2c1 [Compound 222, S,S′-((((difluoro(2-(((3S,6S,7aR, 8aS,9aR)-5-oxo-3-(3-(pyrimidin-5-yl)azetidine-1-carbonyl)decahydro-1H-cyclopropa[d]pyrrolo[1,2-a]azocin-6-yl)carbamoyl)benzo[b]thiophen-5-yl)methyl)phosphoryl)bis(oxy))bis(ethane-2,1-diyl)) bis(3-methylbutane thioate)] | < 100 | > 3000 |
| CC(C)(O)CC(=O)SCCOP(=O)(OCCSC(=O)CC(C)(C)O)C(F)(F)c1ccc2sc(C(=O)NC3CC4CC4CC4CCC(C(=O)N5CC(n6ccnc6)C5)N4C3=O)cc2c1 [Compound 136, S,S′-(((((2-(((3S,6S,7aS, 8aR,9aR)-3-(3-(1H-imidazol-1-yl)azetidine-1-carbonyl)-5-oxodecahydro-1H-cyclopropa[d]pyrrolo[1,2-a]azocin-6-yl)carbamoyl)benzo[b]thiophen-5-yl)difluoro-methyl)phosphoryl)bis(oxy))bis (ethane-2,1-diyl))bis(3-hydroxy-3-methylbutane thioate)] | 1000 to 3000 | > 3000 |
